Where a name gives a salt, the structure may show the parent alone. ± gives the uncertainty stated by the source.
What was measured:
Experiment in all cases: mass response relative to vehicle control (EMD distance of treated vs reference mass distribution minus control baseline) (% of mean reference cell mass); higher = larger drug-induced change in single-cell mass distribution (stronger response)
[1] = tested on: PC9
Procedure: (§1)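 Cancer cell lines were treated in vitro with drugs at the listed doses (about 24 h; 0.25% DMSO vehicle). Single-cell buoyant mass was measured on suspended microchannel resonator instruments with CNN image curation, 2500 cells per condition. Mass response is the Earth Mover's Distance to vehicle-treated reference cells as % of mean reference mass.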

[2] = tested on: MOLM-13
Procedure: as §1

[3] = tested on: MM1S ATCC
Procedure: as §1

[4] = tested on: MDA-MB-361
Procedure: as §1

`COc1cc(N2CCC(N3CCN(C)CC3)CC2)ccc1Nc1ncc(Cl)c(Nc2ccccc2P(C)(C)=O)n1` [Brigatinib] gave a mass response ([1]; 0.1 µM) of 1.59 ± 3.9, a mass response ([1]; 0.5 µM) of 22.4 ± 1.5 and a mass response ([1]; 1 µM) of 33.6 ± 2.4. It also gave a mass response ([1]; 10 µM) of 51.3 ± 5.4.
For `CC(C)(C)c1cc(NC(=O)Nc2ccc(-c3cn4c(n3)sc3cc(OCCN5CCOCC5)ccc34)cc2)no1` [Quizartinib], the mass response ([2]; 0.0001 µM) was 1.17 ± 1.9, the mass response ([2]; 0.001 µM) was 16.3 ± 0.82 and the mass response ([2]; 0.01 µM) was 27 ± 0.32. The mass response ([2]; 0.1 µM) was 25.8 ± 0.77.
With `CO[C@@H]1[C@H](N(C)C(=O)c2ccccc2)C[C@H]2O[C@]1(C)n1c3ccccc3c3c4c(c5c6ccccc6n2c5c31)C(=O)NC4` [Midostaurin] the mass response ([2]; 0.02 µM) was 14.9 ± 0.91, the mass response ([2]; 0.2 µM) was 38.7 ± 1.5 and the mass response ([2]; 2 µM) was 27.7 ± 0.98. For the same compound, the mass response ([2]; 20 µM) was 30.2 ± 2.4.
Compound `CC(C)C[C@H](NC(=O)CNC(=O)c1cc(Cl)ccc1Cl)B(O)O` [Ixazomib] has a mass response ([3]; 0.00025 µM) of 2.33 ± 1.5, a mass response ([3]; 0.0025 µM) of -0.705 ± 2.2 and a mass response ([3]; 0.025 µM) of 10.7 ± 0.64. It also gave a mass response ([3]; 0.25 µM) of 9.05 ± 2.4.
With `COc1cc([C@@H]2c3cc4c(cc3[C@@H](O[C@@H]3O[C@@H]5CO[C@@H](C)O[C@H]5[C@H](O)[C@H]3O)[C@H]3COC(=O)[C@H]23)OCO4)cc(OC)c1O` [Etoposide] the mass response ([1]; 0.01 µM) was 0.492 ± 1.6, the mass response ([1]; 0.1 µM) was 0.732 ± 2.1 and the mass response ([1]; 1 µM) was 12.3 ± 1. The mass response ([1]; 10 µM) was 36.2 ± 0.97.
With `CNC(=O)c1cc(Oc2ccc(NC(=O)Nc3ccc(Cl)c(C(F)(F)F)c3)c(F)c2)ccn1` [Regorafenib] the mass response ([3]; 0.04 µM) was 1.84 ± 1.4, the mass response ([3]; 0.4 µM) was 0.733 ± 1.4 and the mass response ([3]; 4 µM) was 10.9 ± 0.83. It also gave a mass response ([3]; 20 µM) of 44.9 ± 2.9.
With `COc1cccc2c1C(=O)c1c(O)c3c(c(O)c1C2=O)C[C@@](O)(C(=O)CO)C[C@@H]3O[C@H]1C[C@H](N)[C@@H](O)[C@H](C)O1` [Epirubicin] the mass response ([4]; 0.15 µM) was 10.2 ± 1.1, the mass response ([4]; 0.625 µM) was 10.7 ± 0.92 and the mass response ([4]; 2.5 µM) was 8.33 ± 2.5. It also gave a mass response ([4]; 10 µM) of 13.1 ± 3.1.
`C=CC(=O)Nc1cc(Nc2nccc(-c3cn(C)c4ccccc34)n2)c(OC)cc1N(C)CCN(C)C` [Osimertinib] gave a mass response ([1]; 0.05 µM) of 11.8 ± 3, a mass response ([1]; 0.5 µM) of 9.37 ± 6.4 and a mass response ([1]; 5 µM) of 7.62 ± 2.4. It also gave a mass response ([1]; 50 µM) of 65.8 ± 0.9.
`N.N.[Cl][Pt][Cl]` [Cisplatin] was tested, and the mass response ([4]; 10 µM) was 3.9 ± 9.3, the mass response ([4]; 20 µM) was 2.2 ± 2.3 and the mass response ([4]; 50 µM) was 4.96 ± 1.6. It also gave a mass response ([4]; 0.0001 M) of 19.4 ± 2.7.
`Nc1cccc2c1CN(C1CCC(=O)NC1=O)C2=O` (configuration not stated) [Lenalidomide] showed a mass response ([3]; 0.1 µM) of 1.82 ± 5.2, a mass response ([3]; 1 µM) of 4.81 ± 3.5 and a mass response ([3]; 10 µM) of 4.13 ± 1.8. It also gave a mass response ([3]; 0.0001 M) of 14.4 ± 1.9.
Work on `Cc1nc(NC(=O)N2CCC[C@H]2C(N)=O)sc1-c1ccnc(C(C)(C)C(F)(F)F)c1` [Alpelisib] yielded a mass response ([4]; 0.05 µM) of 7.91 ± 1.6, a mass response ([4]; 0.5 µM) of 16.4 ± 0.24 and a mass response ([4]; 5 µM) of 39.9 ± 5.9. The mass response ([4]; 50 µM) was 62.6 ± 1.8.
`COc1cccc2c1C(=O)c1c(O)c3c(c(O)c1C2=O)C[C@@](O)(C(C)=O)C[C@@H]3O[C@H]1C[C@H](N)[C@H](O)[C@H](C)O1` [Daunorubicin] showed a mass response ([2]; 0.01 µM) of 3.77 ± 1.2, a mass response ([2]; 0.1 µM) of 22.3 ± 2.7 and a mass response ([2]; 1 µM) of 31.1 ± 1.9. It also gave a mass response ([2]; 10 µM) of 45.8 ± 2.6.
In the case of `CC(=O)O[C@@]12CO[C@@H]1C[C@H](O)[C@@]1(C)C(=O)[C@H](O)C3=C(C)[C@@H](OC(=O)[C@H](O)[C@@H](NC(=O)OC(C)(C)C)c4ccccc4)C[C@@](O)([C@@H](OC(=O)c4ccccc4)[C@H]21)C3(C)C` [Docetaxel], the mass response ([1]; 0.001 µM) is reported as 0.63 ± 3.4, the mass response ([1]; 0.0025 µM) is reported as 5.56 ± 2.2 and the mass response ([1]; 0.005 µM) is reported as 12.4 ± 1.8. The mass response ([1]; 0.01 µM) was 25.2 ± 4.1.
`Nc1ncn([C@H]2C[C@H](O)[C@@H](CO)O2)c(=O)n1` [Decitabine] showed a mass response ([2]; 0.25 µM) of 7.58 ± 1.9, a mass response ([2]; 2.5 µM) of 9.65 ± 3.3 and a mass response ([2]; 25 µM) of 9.39 ± 2.4. For the same compound, the mass response ([2]; 0.00025 M) was 8.64 ± 2.2.
Compound `CCc1nc(C(N)=O)c(Nc2ccc(N3CCC(N4CCN(C)CC4)CC3)c(OC)c2)nc1NC1CCOCC1` [Gilteritinib] has a mass response ([2]; 0.002 µM) of -3.18 ± 4.6, a mass response ([2]; 0.02 µM) of 13.3 ± 3.4 and a mass response ([2]; 0.2 µM) of 35 ± 2.9. It also gave a mass response ([2]; 2 µM) of 33.9 ± 5.4.
Compound `CS(=O)(=O)CCNCc1ccc(-c2ccc3ncnc(Nc4ccc(OCc5cccc(F)c5)c(Cl)c4)c3c2)o1` [Lapatinib] has a mass response ([4]; 0.1 µM) of 0.147 ± 0.5, a mass response ([4]; 1 µM) of 6.42 ± 1.7 and a mass response ([4]; 10 µM) of 19.6 ± 1.1. The mass response ([4]; 0.0001 M) was 19.5 ± 2.4.
For `CCC1=C[C@@H]2CN(C1)Cc1c([nH]c3ccccc13)[C@@](C(=O)OC)(c1cc3c(cc1OC)N(C)[C@H]1[C@@](O)(C(=O)OC)[C@H](OC(C)=O)[C@]4(CC)C=CCN5CC[C@]31[C@@H]54)C2` [Vinorelbine Tartrate], the mass response ([4]; 0.002 µM) was 0.302 ± 2.8, the mass response ([4]; 0.02 µM) was 13 ± 0.57 and the mass response ([4]; 0.2 µM) was 14.6 ± 1.1. The mass response ([4]; 2 µM) was 13.1 ± 1.9.
Work on `CC(=O)[C@]1(O)Cc2c(O)c3c(c(O)c2[C@@H](O[C@H]2C[C@H](N)[C@H](O)[C@H](C)O2)C1)C(=O)c1ccccc1C3=O` [Idarubicin] yielded a mass response ([2]; 0.001 µM) of -0.127 ± 1.4, a mass response ([2]; 0.01 µM) of 19.1 ± 2.9 and a mass response ([2]; 0.1 µM) of 33.1 ± 2. For the same compound, the mass response ([2]; 1 µM) was 36.6 ± 2.1.

Reference: the supplement of paper PMC9701192
